Experimental findings from ChEMBL document CHEMBL3217668, “3-Formylchromone based topoisomerase II inhibitors: discovery of potent leads” (Medchemcomm, 2013) are described below.

By IC50 is commonly meant the point on the concentration scale where inhibition reaches its midpoint. A high value points to lower potency.

Activity calls are given as the source filed them. The rule behind the calls is not given here.

One experiment has as its system PC-3. Kind of experiment: Cytotoxicity against human PC3 cells assessed as cell survival after 48 hrs by MTT assay. Format: functional. Conditions: PC-3, 48 h, read-out: LC50 (the source's name).
For experiment [1], the system named is Nucleic Acid. Kind of experiment: Binding affinity to Escherichia coli plasmid DNA assessed as intercalation at 100 uM after 20 mins by agarose gel electrophoresis. Type of experiment: nucleic-acid assay.
Experiment [2] has as its target T1, DNA topoisomerase 2-alpha (Homo sapiens, UniProt P11388). Kind of experiment: Inhibition of human topoisomerase-2alpha-mediated supercoiled pRYG DNA relaxation at 100 uM after 30 mins by agarose gel electrophoresis.
Experiment [3] addresses T1, DNA topoisomerase 2-alpha. Kind of experiment: Inhibition of human topoisomerase-2alpha-mediated kDNA decatenation at 100 uM after 30 mins by agarose gel electrophoresis.
Experiment [4] has as its system Nucleic Acid. Description: Binding affinity to Escherichia coli plasmid DNA assessed as intercalation at 1 ug/mL after 20 mins by agarose gel electrophoresis. Type of experiment: nucleic-acid assay.
Experiment [5] addresses T1, DNA topoisomerase 2-alpha. Description: Inhibition of human topoisomerase-2alpha-mediated kDNA decatenation after 30 mins by agarose gel electrophoresis.

T1 sequence (P11388 whole entry): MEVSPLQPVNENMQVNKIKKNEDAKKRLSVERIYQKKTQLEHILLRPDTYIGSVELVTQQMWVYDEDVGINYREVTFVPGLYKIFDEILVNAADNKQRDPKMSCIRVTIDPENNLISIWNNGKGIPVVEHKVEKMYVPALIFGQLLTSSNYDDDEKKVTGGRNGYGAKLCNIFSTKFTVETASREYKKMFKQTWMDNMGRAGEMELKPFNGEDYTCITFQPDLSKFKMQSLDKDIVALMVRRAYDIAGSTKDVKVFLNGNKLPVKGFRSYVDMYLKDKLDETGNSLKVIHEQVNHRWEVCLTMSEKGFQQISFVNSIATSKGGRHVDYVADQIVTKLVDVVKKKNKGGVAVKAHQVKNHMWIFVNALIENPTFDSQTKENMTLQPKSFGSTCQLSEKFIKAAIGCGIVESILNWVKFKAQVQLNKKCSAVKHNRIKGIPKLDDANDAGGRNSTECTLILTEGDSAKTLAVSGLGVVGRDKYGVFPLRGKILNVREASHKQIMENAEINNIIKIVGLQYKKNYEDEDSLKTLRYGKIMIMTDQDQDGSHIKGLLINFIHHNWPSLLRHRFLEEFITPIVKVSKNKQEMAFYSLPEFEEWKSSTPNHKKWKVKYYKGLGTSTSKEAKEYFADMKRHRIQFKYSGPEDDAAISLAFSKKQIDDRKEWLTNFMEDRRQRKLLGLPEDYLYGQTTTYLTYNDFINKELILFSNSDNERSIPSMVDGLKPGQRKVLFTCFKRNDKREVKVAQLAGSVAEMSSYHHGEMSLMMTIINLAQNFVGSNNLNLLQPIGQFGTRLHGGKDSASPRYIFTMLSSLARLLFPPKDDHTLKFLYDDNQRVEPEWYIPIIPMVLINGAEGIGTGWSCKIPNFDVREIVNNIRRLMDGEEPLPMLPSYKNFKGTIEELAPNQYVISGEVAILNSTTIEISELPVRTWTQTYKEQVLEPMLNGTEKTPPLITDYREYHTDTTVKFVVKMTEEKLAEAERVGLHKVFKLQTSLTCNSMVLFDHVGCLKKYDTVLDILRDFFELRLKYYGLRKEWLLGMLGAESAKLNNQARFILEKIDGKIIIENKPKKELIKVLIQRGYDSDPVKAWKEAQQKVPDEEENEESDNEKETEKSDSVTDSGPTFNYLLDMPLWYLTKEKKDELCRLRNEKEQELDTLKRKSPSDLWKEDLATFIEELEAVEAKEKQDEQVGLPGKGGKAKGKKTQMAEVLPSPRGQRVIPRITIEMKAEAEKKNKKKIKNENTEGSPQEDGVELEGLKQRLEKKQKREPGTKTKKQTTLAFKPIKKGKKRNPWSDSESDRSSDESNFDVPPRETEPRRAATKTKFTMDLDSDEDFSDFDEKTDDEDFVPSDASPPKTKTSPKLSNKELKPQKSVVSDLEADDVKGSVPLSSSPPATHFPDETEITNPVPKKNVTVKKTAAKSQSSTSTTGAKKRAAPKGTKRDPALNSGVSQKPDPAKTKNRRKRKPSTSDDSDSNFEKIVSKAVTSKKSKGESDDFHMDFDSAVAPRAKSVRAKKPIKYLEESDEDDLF

On to `O=Cc1c(Nc2ccccc2)oc2cc(Cl)ccc2c1=O`, for which the CC50 in the experiment with PC-3 came to 2.5 µM. The result in the experiment on Nucleic Acid [1] was inactive. Moreover, the inhibition entry in experiment [2] and in experiment [3] was “Active” each time.

With `O=Cc1c(Nc2ccccc2)oc2ccccc2c1=O`, the CC50 with PC-3 came out at 8.2 µM. The result in the experiment on Nucleic Acid [1] was inactive. Further, the inhibition entry in experiment [2] and in experiment [3] was “Active” in each case.

As to `O=Cc1c(Nc2ccccc2)oc2ccc(F)cc2c1=O`, in the experiment with PC-3, the CC50 turned out to be 8.6 µM. In addition, the outcome in the experiment with Nucleic Acid [1] was inactive. The inhibition result in experiment [2] and in experiment [3] was “Active” in each case.

With `CN(c1ccccc1)c1oc2ccc(Cl)cc2c(=O)c1C=O`, the CC50 with PC-3 was 2.1 µM. Further, the outcome in the experiment with Nucleic Acid [1] was inactive. For the same compound, the inhibition entry in experiment [2] and in experiment [3] was “Active” throughout.

Take `O=Cc1coc2ccc(Cl)cc2c1=O`: in the experiment with PC-3, the CC50 came to 5.7 µM. Besides, the result in the experiment on Nucleic Acid [1] was inactive. Besides, the inhibition entry in experiment [2] and in experiment [3] was “Active” in each case.

For the compound `COc1cc([C@@H]2c3cc4c(cc3[C@@H](O[C@@H]3O[C@@H]5CO[C@@H](C)O[C@H]5[C@H](O)[C@H]3O)[C@H]3COC(=O)[C@H]23)OCO4)cc(OC)c1O` [ETOPOSIDE], in the experiment with PC-3, the CC50 is 7.5 µM. Also, the result in the experiment with Nucleic Acid [1] was inactive. The inhibition entry in experiment [2] and in experiment [3] was “Active” each time.

As to `CC[n+]1c(-c2ccccc2)c2cc(N)ccc2c2ccc(N)cc21`, the outcome in the experiment with Nucleic Acid [4] was Active.

With `O=Cc1c(Nc2ccccc2)oc2ccc(Cl)cc2c1=O`, in the experiment with PC-3, the CC50 was determined as 8.3 µM. Besides, in the experiment with Nucleic Acid [1], the result was inactive. Further, the inhibition entry in experiment [2] and in experiment [3] was “Active” throughout.

Compound `CN(c1ccccc1)c1oc2ccccc2c(=O)c1C=O` yielded an IC50 in experiment [5] of 67.9 µM. Besides, in the experiment with PC-3, the CC50 worked out at 0.5 µM. In addition, the result with Nucleic Acid [1] was inactive. In addition, the inhibition result in experiment [2] is “Active”.
